Counter-ions that a name gives are not always drawn.
Assays:
[1] = literature series of mainly imidazolium compounds; cited from earlier work
TGFbeta = assay: In situ hybridization studies, TGFbeta expression
Excerpt: (§1) Cardiovascular risk correlates more closely with the systolic and the pulse pressure than with the diastolic pressure. In diabetic patients, the cardiovascular risk profile of diabetic patients is strongly correlated to duration of diabetes, glycemic control and blood pressure. Structural matrix proteins contribute to the function of vessels and the heart, and changes in the physical behavior of cardiovascular walls are believed to be important determinants of circulatory function. In elderly individuals, the loss of compliance in the aorta leads to isolated systolic hypertension, which in turn expands the arterial wall and thereby diminishes the dynamic range of elasticity. […] Treatment with 3-[2-phenyl-2-oxoethyl]-4,5-dimethyl-thiazolium salt lead to a reduction in the mass of collagen in cardiovascular tissues.

Rats = assay: Rat myocardial infarct after ligation of the left anterior descending coronary artery; assay type: in vivo; conditions: 10 mg/kg daily intraperitoneal, 30 days before and 14 days after coronary ligation
Protocol: Rats received a daily intraperitoneal dose of 10 mg/kg 3-[2-phenyl-2-oxoethyl]-4,5-dimethyl-thiazolium salt (compound A) (n=14) or placebo (n=15) for 30 days. The animals then underwent a thoracotomy and the left anterior descending coronary artery ligated. The chest was then closed and the animals allowed to recover for 14 days while continuing to be treated with compound A or placebo. The animals were then sacrificed and the hearts removed for histological examination. The weight of the infarcted tissue was 0.16±0.04 g for the placebo treated animals compared to 0.11±0.05 g for the compound A treated animals (p=0.04).

[2] = test system: rodents, canines and primates; assay: In vivo studies of vascular stiffening and collagen mass in cardiovascular tissues
Excerpt: as §1

Type IV collagen = assay: In situ hybridization studies, Type IV collagen expression
Excerpt: as §1

dog model for diabetes = assay: Dog model for diabetes, ventricular elasticity; assay type: in vivo
Excerpt: as §1

[3] = test system: elderly patients with pulse pressures greater than 60 mm Hg; assay: Phase IIa clinical trial; assay type: in vivo, human
Excerpt: When the heart pumps blood into the vascular system, the ability of the arteries to expand helps to push blood through the body. When arteries become stiff, as they do in the natural process of aging, the ability of the arteries to expand is diminished and also has consequences for the heart. The heart has to work harder to pump the blood into the stiff arteries, and eventually hypertrophies (enlarges in size) to accomplish this. A hypertrophied heart is an inefficient pump, and is one of the disorders that leads to congestive heart failure. […] The potential clinical benefit of this is to lessen the effort that the heart must expend to push blood throughout the body. The effect is also believed to contribute to preventing hypertrophy and subsequent inefficiency of the heart, which inefficiency would contribute to congestive heart failure.
Atherosclerosis is a disease that involves deposition of blood lipids in plaque in the arteries throughout the body. In coronary arteries, accumulation of plaque progressively leads to reduced coronary flow, with occlusion of the arteries causing focal death of cardiac tissue (myocardial infarction, heart attack). If the amount of tissue that dies is large enough, death ensures. In a Phase IIa trial, one compound believed to work by a mechanism shared by the compounds of the invention, 3-[2-phenyl-2-oxoethyl]-4,5-dimethyl-thiazolium salt, […] the amount of circulating triglycerides (lipids). […] Reducing local deposits of plaque should eventually lessen the risk of myocardial infarction and death due to heart attacks.
Pulse pressure is the difference between systolic and diastolic blood pressure. In a young human, systolic pressure is typically 120 mm Hg and diastolic pressure is 80 mm Hg, resulting in a pulse pressure of 40 mm Hg. With age, in many individuals pulse pressure increases, largely due to the increase in systolic pressure that results from stiff vessel disease. In individuals with pulse pressure greater than 60 mm Hg there is an increased risk of death from cardiovascular morbidities.

Row | Compound | glucose lowering effect [1] | expression of TGFbeta (TGFbeta) | thickness of the ventricular wall in the infarcted zone (Rats; p=0.09 vs placebo) [mm] | weight of the infarcted tissue (Rats; placebo 0.16±0.04 g, p=0.04) [g] | mass of collagen in cardiovascular tissues ([2]; in vivo) | vascular stiffening ([2]; in vivo studies in rodents, canines and primates) | expression of Type IV collagen (Type IV collagen) | end diastolic pressure and end diastolic volume, indicators of ventricular elasticity (dog model for diabetes) | stiffness of arteries, measured by the ratio of stroke volume (ml) to pulse pressure (mm Hg) ([3]; Phase IIa clinical trial) | amount of circulating triglycerides (lipids) ([3]; Phase IIa trial) | pulse pressure ([3]; Phase IIa trial, elderly patients with pulse pressures greater than 60 mm Hg, statistically significant)
1 | 3-[2-(3,5-Dimethoxyphenyl)-2-oxoethyl]-oxazolium | inactive |  |  |  |  |  |  |  |  |  | 
2 | Cc1sc[n+](CC(=O)c2ccccc2)c1C [compound A, 3-[2-phenyl-2-oxoethyl]-4,5-dimethyl-thiazolium salt] |  | reduces | 2.56±0.22 | 0.11 ± 0.05 | reduction | substantially ameliorating vascular stiffening | reduces | returned to a value at about the mid-point between the disease impaired value and the value for control dogs | reverse the stiffness of arteries | increased | reduced
